Tests used:
Assay type in all cases: binding
panel of 50 SH2 domains = assay: SPOT peptide array probed with each of 50 GST-SH2 domains; conditions: for Other SH2 domains bound (additional array-positive SH2 domains): SH2 domains with intensity >3X array mean, GST-SH2 0.25 μM, 1 mM DTT; for SH2 Domains >3X / 2X < SH2 Domains < 3X: SPOT192 peptide array; for SH2 Domains >3X: list of GST-SH2 domains with spot intensity >3X array mean (array-positive); for 2X < SH2 Domains < 3X: list of GST-SH2 domains with spot intensity between 2X and 3X array mean (indeterminate range)
Method in brief: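 Each GST-fused SH2 domain was overlaid on 192 membrane-synthesized pTyr peptides (11-mers, 4 N-terminal and 6 C-terminal flanking residues) and read with anti-GST and near-infrared secondary antibodies. Binding called relative to membrane mean intensity (>3× positive, <1× negative); GST-only probes defined nonspecific peptides.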

Grb2 SH2 domain = Grb2 SH2 domain (Homo sapiens, UniProt P62993); assay: SPOT peptide array; conditions: GST-SH2 0.25 μM, membrane-bound peptide, 1 mM DTT, LiCor read-out
Chain of Grb2 SH2 domain (P62993 60-152 limits assumed): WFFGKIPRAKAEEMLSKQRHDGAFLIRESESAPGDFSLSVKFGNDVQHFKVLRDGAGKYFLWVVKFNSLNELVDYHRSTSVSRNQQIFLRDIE
Source text: (§1) The use of addressable peptide arrays is a reproducible and semi-quantitative approach that has been extensively validated for studying protein interactions with peptide ligands. To investigate connections between SH2 domain proteins and their putative phosphorylated docking sites on cell surface receptors, we developed addressable arrays consisting of 192 phosphotyrosine peptides. This peptide set was assembled using 71 phosphotyrosine peptide motifs corresponding to all of the cytoplasmic tyrosine residues within the FGF receptors (FGFR1-4), insulin receptor (InsR) and IGF-1 receptor (IGF-1R) (Figure 1A). Activation of these receptors results in the phosphorylation of associated scaffold proteins, and so 75 phosphotyrosine peptides corresponding to a comprehensive list of tyrosine residues within insulin receptor substrates (IRS-1 and IRS-2) and fibroblast receptor substrates (FRS-2 and FRS-3) were included. In addition, 33 phosphotyrosine peptides were incorporated from the downstream signaling proteins PLC-γ1, p130Cas (BCAR1) and p62DOK1. […] These control peptides provide a reference and establish the empirical cut-off for designated binding interactions (Table 1). No discrimination was made against peptides on the basis of reported phosphorylation state in order to examine a diverse and unbiased set of motifs. The resulting set of 192 phosphotyrosine peptides and their corresponding position in the proteins of origin is noted in Additional file 1: Table S1. Addressable arrays were synthesized as membrane-bound 11-mer peptides using the SPOT synthesis technique. While the majority of SH2 domains recognize residues C-terminal to the phosphotyrosine in their cognate peptide ligands, additional contacts between SH2 domains and residues N-terminal to the phosphotyrosine are observed for the SH2 domain of Sh2d1a (SAP) and cannot be ruled out in other cases. Peptides were synthesized with six flanking residues C-terminal to the phosphotyrosine and four residues N-terminal to the phosphotyrosine.
(§2) SH2 domains were arrayed as GST fusion proteins and detected using anti-GST primary antibodies and near-infrared labeled secondary antibodies. In an effort to present a dataset with minimal false positives, we chose an empirical cutoff based on the array average across all peptide spots to classify interactions (Figure 1A). In cases where the intensity of the signal for an individual SH2-domain binding event exceeded the mean intensity of all the peptides on the membrane by three-fold were scored as “array positives” [22]. Non-binding was judged in cases where the intensity of a spot was less than the mean intensity of all spots on the membrane and these were scored as “array negatives”. Peptides with signal intensities between 1X and 3X mean were scored as “indeterminate” and ascribed as neither array positive binding interactions nor array-negative non-binders. […] This signature may be indicative of promiscuity differences between phosphopeptides or there may be a subset of peptides which interact in a nonspecific fashion with either the GST fusion tag or one of the antibodies used for detection, resulting in false positives. Consistent with our goal of reducing the errors associated with identifying false-positives, we probed three separate arrays with three separate preps of the GST fusion tag alone. Potentially non-specificly interacting peptides (so-called ‘sticky’ peptides) were identified as any that bound to GST with above mean intensity in two out of three separate trials. This approach identifies any peptides which interact with GST or either of the recognition antibodies, a known confounding factor for downstream analysis. This conservative approach allows us to score many significant peptides as ‘binders’ which may have been indeterminate before when incorporating the ‘sticky’ peptides into the array average. […]

Plcγ-C SH2 domain = assay: SPOT peptide array; conditions: GST-SH2 0.25 μM; for Array positive: membrane-bound peptide, 1 mM DTT, LiCor read-out
Source text: as §1, §2

Crk SH2 domain = Crk SH2 domain (Homo sapiens, UniProt P46108); assay: SPOT peptide array; conditions: GST-SH2 0.25 μM, membrane-bound peptide, 1 mM DTT, LiCor read-out
Chain of Crk SH2 domain (P46108 13-118 limits assumed): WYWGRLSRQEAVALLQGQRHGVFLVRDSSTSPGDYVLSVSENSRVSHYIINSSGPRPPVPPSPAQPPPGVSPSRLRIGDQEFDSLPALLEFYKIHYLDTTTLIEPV
Source text: as §1, §2

Ptpn11_N SH2 domain = target: T1, Ptpn11_N SH2 domain (Homo sapiens, UniProt Q06124); assay: SPOT peptide array; conditions: GST-SH2 0.25 μM; for Array positive: membrane-bound peptide, 1 mM DTT, LiCor read-out; for Peptide array intensity (X mean): spot intensity as factor of array mean
T1 sequence (Q06124 6-102 limits assumed): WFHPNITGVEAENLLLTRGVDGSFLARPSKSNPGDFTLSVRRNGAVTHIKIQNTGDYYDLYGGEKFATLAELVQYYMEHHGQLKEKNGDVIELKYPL
Source text: as §1, §2

Nck1 SH2 domain = Nck1 SH2 domain (Homo sapiens, UniProt P16333); assay: SPOT peptide array; conditions: GST-SH2 0.25 μM; for Array positive: membrane-bound peptide, 1 mM DTT, LiCor read-out
Source text: as §1, §2

[1] = spot intensity as factor of array mean

QVHTpYVNTTGV [11-mer phosphotyrosine peptide, FRS2 (Y196)]
Other SH2 domains bound (additional array-positive SH2 domains) (panel of 50 SH2 domains): Abl2, Gads, Grap, PI3K1_C | Array positive (Grb2 SH2 domain): Yes (Array-positive binding was ascribed to interactions with intensities greater than three times the array mean)

NPGFpYVEANPM [11-mer phosphotyrosine peptide, PLCγ1 (Y783)]
Other SH2 domains bound (additional array-positive SH2 domains) (panel of 50 SH2 domains): PLCγ_C at 1.03X mean; Zap70_N | Array positive (Plcγ-C SH2 domain): No (Peptide spots with average intensity values between 1X-3X the array mean were defined as ‘indeterminate’. Those with intensities below 1X mean were defined as array negative) | Peptide array intensity (X mean) (Plcγ-C SH2 domain; [1]): 1.03 X Mean

ATDDpYAVPPPR [11-mer phosphotyrosine peptide, p62DOK1 (Y409), similar to p130Cas (Y410)]
Other SH2 domains bound (additional array-positive SH2 domains) (panel of 50 SH2 domains): Crkl, Hck | Array positive (Crk SH2 domain): Yes (Array-positive binding was ascribed to interactions with intensities greater than three times the array mean)

PMHNpYVNTENV [11-mer phosphotyrosine peptide, FRS2 (Y392)]
Other SH2 domains bound (additional array-positive SH2 domains) (panel of 50 SH2 domains): Gads, Grap | Array positive (Grb2 SH2 domain): Yes (Array-positive binding was ascribed to interactions with intensities greater than three times the array mean)

APVSpYADMRTG [11-mer phosphotyrosine peptide, IRS-1 (Y1012)]
Array positive (Ptpn11_N SH2 domain): No (Peptide spots with average intensity values between 1X-3X the array mean were defined as ‘indeterminate’. Those with intensities below 1X mean were defined as array negative) | Peptide array intensity (X mean) (Ptpn11_N SH2 domain): 0.59 X Mean

RQLNpYIQVDLE [11-mer phosphotyrosine peptide, FRS2 (Y436)]
Other SH2 domains bound (additional array-positive SH2 domains) (panel of 50 SH2 domains): Itk, Mist, PLCγ_C, Rasa1_N, Shb, Shd, She, Syk_C | Array positive (Ptpn11_N SH2 domain): Yes (Array-positive binding was ascribed to interactions with intensities greater than three times the array mean)

GGEFpYGYMTMD [11-mer phosphotyrosine peptide, IRS-2 (Y540)]
Other SH2 domains bound (additional array-positive SH2 domains) (panel of 50 SH2 domains): Dapp1, Grb7 | Array positive (Plcγ-C SH2 domain): Yes (Array-positive binding was ascribed to interactions with intensities greater than three times the array mean)

DDPSpYVNVQNL [11-mer phosphotyrosine control peptide, ShcA (Y426), reference compound]
Other SH2 domains bound (additional array-positive SH2 domains) (panel of 50 SH2 domains): Gads, Grap | Array positive (Grb2 SH2 domain): Yes (Array-positive binding was ascribed to interactions with intensities greater than three times the array mean)

PQDIYDVPPVR [11-mer peptide, P130Cas (Y249)]
Other SH2 domains bound (additional array-positive SH2 domains) (panel of 50 SH2 domains): Crkl, Zap70_N | Array positive (Crk SH2 domain): Yes (Array-positive binding was ascribed to interactions with intensities greater than three times the array mean)

EQDEYDIPRHL [11-mer peptide, p130Cas (Y234)]
Other SH2 domains bound (additional array-positive SH2 domains) (panel of 50 SH2 domains): Brk, Crkl, Fyn, Lck, Lyn, Shc1, Yes | Array positive (Crk SH2 domain): Yes (Array-positive binding was ascribed to interactions with intensities greater than three times the array mean)

DPNGpYMMMSPS [11-mer phosphotyrosine peptide, IRS-1 (Y662)]
Array positive (Ptpn11_N SH2 domain): No (Peptide spots with average intensity values between 1X-3X the array mean were defined as ‘indeterminate’. Those with intensities below 1X mean were defined as array negative) | Peptide array intensity (X mean) (Ptpn11_N SH2 domain): 0.54 X Mean

ALLNpYENLPSL [11-mer phosphotyrosine peptide, FRS2 (Y349)]
Other SH2 domains bound (additional array-positive SH2 domains) (panel of 50 SH2 domains): Abl1, Abl2, Gads, Grap, Grb2, Grb7, PI3K1_C, Sh2d2a, Sh3bp2 | Array positive (Grb2 SH2 domain): Yes (Array-positive binding was ascribed to interactions with intensities greater than three times the array mean)

SDDDpYDDVDIP [11-mer phosphotyrosine control peptide, HPK1 (Y379), reference compound]
Other SH2 domains bound (additional array-positive SH2 domains) (panel of 50 SH2 domains): Fer, SLNK (similar to BLNK and SLP76) | Array positive (Nck1 SH2 domain): Yes (Array-positive binding was ascribed to interactions with intensities greater than three times the array mean)

TRDIpYETDpYpYR [triply phosphorylated peptide, InsR (Y1185,89,90)]
Other SH2 domains bound (additional array-positive SH2 domains) (panel of 50 SH2 domains): Crk, Crkl, Fer, Grb7, PI3K1_C | Array positive (Plcγ-C SH2 domain): Yes (Array-positive binding was ascribed to interactions with intensities greater than three times the array mean)

PNGDpYLNVSPS [11-mer phosphotyrosine peptide, IRS-2 (Y766)]
Other SH2 domains bound (additional array-positive SH2 domains) (panel of 50 SH2 domains): Sh2d1b, Vav1 | Array positive (Grb2 SH2 domain): Yes (Array-positive binding was ascribed to interactions with intensities greater than three times the array mean)

NKLVpYENINGL [11-mer phosphotyrosine peptide, FRS2 (Y306)]
Other SH2 domains bound (additional array-positive SH2 domains) (panel of 50 SH2 domains): Grap, Grb7, Sh2d2a | Array positive (Grb2 SH2 domain): Yes (Array-positive binding was ascribed to interactions with intensities greater than three times the array mean)

MCWQpYNPKMRP [B14]
SH2 Domains >3X (panel of 50 SH2 domains): BCAR3, BMX, BRDG1, FER, MIST, TENC1 | 2X < SH2 Domains < 3X (panel of 50 SH2 domains): ITK, MATK, PLCG2_N, PLCG2_C, PTPN11_C, SHB, SHF, SHD, SYK_C

VIMLpYVFHRKR [B11]
SH2 Domains >3X (panel of 50 SH2 domains): BCAR3, BMX, BRDG1, BRK, DAPP1, FER, MATK, MIST, PI3K1_N, PLCG2_N, PTPN11_N, PTPN11_C, RASA1_C, RIN1, SHB, SHF, SHD, SHE, TENC1 | 2X < SH2 Domains < 3X (panel of 50 SH2 domains): GRB2, PI3K1_C, PLCG2_C, SH3BP2, SYK_C

ELSNpYICMGGK [11-mer phosphotyrosine peptide, IRS-1 (Y465)]
Array positive (Ptpn11_N SH2 domain): No (Peptide spots with average intensity values between 1X-3X the array mean were defined as ‘indeterminate’. Those with intensities below 1X mean were defined as array negative) | Peptide array intensity (X mean) (Ptpn11_N SH2 domain): 0.9 X Mean

PNGHpYILSRGG [C02]
SH2 Domains >3X (panel of 50 SH2 domains): BRDG1, CRK, DAPP1, MIST, PTPN11_C, RASA1_C, SHB, SHF, SHD, SYK_C, TENC1 | 2X < SH2 Domains < 3X (panel of 50 SH2 domains): BCAR3, BMX, FER, PLCG2_N, Sh2b, SHE

FESRpYQQPFED [H06]
SH2 Domains >3X (panel of 50 SH2 domains): ABL1, ABL2, CRK, CRKL, HCK, ITK, NCK1, RASA1_N, RASA1_C, VAV1 | 2X < SH2 Domains < 3X (panel of 50 SH2 domains): MATK, PLCG2_N, SH2D2A, SRC

RLEYpYESEKKW [D01]
SH2 Domains >3X (panel of 50 SH2 domains): SH3BP2 | 2X < SH2 Domains < 3X (panel of 50 SH2 domains): BRDG1, FER, MIST, PTPN11_C, Sh2b, SH2D1B

SIEEpYTEMMPA [11-mer phosphotyrosine peptide, IRS-1 (Y551)]
Array positive (Ptpn11_N SH2 domain): No (Peptide spots with average intensity values between 1X-3X the array mean were defined as ‘indeterminate’. Those with intensities below 1X mean were defined as array negative) | Peptide array intensity (X mean) (Ptpn11_N SH2 domain): 0.56 X Mean

DSDQpYVLMSSP [D23]
SH2 Domains >3X (panel of 50 SH2 domains): FYN, LYN, PI3K1_N, PI3K1_C, SHIP1 | 2X < SH2 Domains < 3X (panel of 50 SH2 domains): BLK, FGR, LCK, SH2D1B

RLEYpYENEKKW [B20]
SH2 Domains >3X (panel of 50 SH2 domains): ABL1, ABL2, BMX, BRK, FER, FGR, HCK, GADS, GRAP, GRB2, GRB7, MATK, MIST, PI3K1_N, PI3K1_C, RIN1, SH2D1B, SH2D2A, SH3BP2, SHF, TENC1, VAV1 | 2X < SH2 Domains < 3X (panel of 50 SH2 domains): BCAR3, BRDG1, CRK, ITK, PLCG2_N, PTPN11_N, PTPN11_C, Sh2b, SHC1, SHD, SRC

EDLSpYGDVPPG [11-mer phosphotyrosine peptide, IRS-1 (Y151)]
Other SH2 domains bound (additional array-positive SH2 domains) (panel of 50 SH2 domains): 1.76X Mean Abl1, Blk, Fyn, Lck, Lyn, Sh2d1b, Shc1, Ship2, Slnk, Yes | Array positive (Nck1 SH2 domain): No (Peptide spots with average intensity values between 1X-3X the array mean were defined as ‘indeterminate’. Those with intensities below 1X mean were defined as array negative) | Peptide array intensity (X mean) (Nck1 SH2 domain; [1]): 1.76 X Mean

Reference: article PMC3514216, “SRC Homology 2 Domain Binding Sites in Insulin, IGF-1 and FGF receptor mediated signaling networks reveal an extensive potential interactome” (Cell Communication and Signaling : CCS, 2012)
